Literature values as cited in publication PMC9260974 (BMC Pharmacology & Toxicology, 2022).

Conditions: in vivo, po; cited from earlier work

With `C[C@H](CS)C(=O)N1CCC[C@H]1C(=O)O` [captopril] as the compound, how does the “Reduction of bioavailability by food” value read?
Its value is 35-50%.
